Earlier results as cited in patent US20150216903A1, “COMPOUNDS FOR IMPROVED VIRAL TRANSDUCTION” (BLUEBIRD BIO, INC., priority 2012, published 2015).

Experiments:
[1] = Raz, FEBS Letters 1972; cited from earlier work
HIV = settings: previous publications (Hayes 2002); cited from earlier work

Compound	conversion upon exposure to plasma [1]	effect on HIV replication (HIV)
CCCCC[C@H](O)/C=C/[C@H]1[C@H](O)CC(=O)[C@@H]1C/C=C\CCCC(=O)O [PGE2, prostaglandin E2]	rapidly converts to prostaglandin A2 (PGA2)	antagonistic to HIV replication
CCCCC[C@H](O)/C=C/[C@H]1C=CC(=O)[C@@H]1C/C=C\CCCC(=O)O [PGA2, prostaglandin A2]		inhibits HIV replication
